Measured values: ChEMBL document CHEMBL3885881, “DrugMatrix”

Species on record: Rattus norvegicus
Test: DrugMatrix - Regimen: Daily Repeat
Format: toxicity, organism-based, Sprague-Dawley
Set-up: regimen Daily Repeat, gender Male, age 6-8 weeks
Details: in vivo, po, route oral GAVAGE, […]; for ABSOLUTE BASOPHIL / ABSOLUTE EOSINOPHIL / ABSOLUTE LYMPHOCYTE / ABSOLUTE MONOCYTE / ABSOLUTE SEGMENTED NEUTROPHIL / BASOPHIL / EOSINOPHIL / ERYTHROCYTE COUNT / HEMATOCRIT / HEMOGLOBIN / LEUKOCYTE COUNT / LYMPHOCYTE / MEAN CORPUSCULAR HEMOGLOBIN / MEAN CORPUSCULAR HEMOGLOBIN CONCENTRATION / MEAN CORPUSCULAR VOLUME / MONOCYTE / NEUTROPHIL / NUCLEATED RED BLOOD CELLS / PLATELET COUNT: tissue Blood; for ALANINE AMINOTRANSFERASE / ALBUMIN / ALKALINE PHOSPHATASE / ASPARTATE AMINOTRANSFERASE / BLOOD UREA NITROGEN / CARBON DIOXIDE / CHLORIDE / CHOLESTEROL / CREATINE PHOSPHOKINASE / CREATININE / GLUCOSE / LACTATE DEHYDROGENASE / LIPASE / PHOSPHORUS / POTASSIUM / SODIUM / TOTAL BILIRUBIN / TOTAL PROTEIN / URIC ACID: tissue Plasma
[1] = 0 mg/kg, 72 h, dose level Control, time 3 day
[2] = 0 mg/kg, 120 h, dose level Control, time 5 day
[3] = 29 mg/kg, 72 h, dose level Low, time 3 day

C[C@@H]1CN(c2c(F)c(N)c3c(=O)c(C(=O)O)cn(C4CC4)c3c2F)C[C@H](C)N1 [SPARFLOXACIN]
ABSOLUTE BASOPHIL [1]: 0 CELLS/uL
ABSOLUTE EOSINOPHIL [1]: 70.67 CELLS/uL
ABSOLUTE LYMPHOCYTE [1]: 12761.5 CELLS/uL
ABSOLUTE MONOCYTE [1]: 214.17 CELLS/uL
ABSOLUTE SEGMENTED NEUTROPHIL [1]: 987 CELLS/uL
BASOPHIL [1]: 0%
EOSINOPHIL [1]: 0.5%
ERYTHROCYTE COUNT [1]: 5.61 x10E6/uL
HEMATOCRIT [1]: 35.22%
HEMOGLOBIN [1]: 13.57 G/DL
LEUKOCYTE COUNT [1]: 14.03 x10E3/uL
LYMPHOCYTE [1]: 91%
MEAN CORPUSCULAR HEMOGLOBIN [1]: 24.25 pg
MEAN CORPUSCULAR HEMOGLOBIN CONCENTRATION [1]: 38.52 G/DL
MEAN CORPUSCULAR VOLUME [1]: 62.9 fL
MONOCYTE [1]: 1.5%
NEUTROPHIL [1]: 7%
NUCLEATED RED BLOOD CELLS [1]: 0 /100WBC
PLATELET COUNT [1]: 997.5 x10E3/uL
ALANINE AMINOTRANSFERASE [1]: 66.5 u/L
ALBUMIN [1]: 3.98 G/DL
ALKALINE PHOSPHATASE [1]: 350 u/L
ASPARTATE AMINOTRANSFERASE [1]: 83.83 u/L
BLOOD UREA NITROGEN [1]: 12.33 mg/dL
CARBON DIOXIDE [1]: 30.33 mmol/L
CHLORIDE [1]: 100 MEQ/L
CHOLESTEROL [1]: 75 mg/dL
CREATINE PHOSPHOKINASE [1]: 200 u/L
CREATININE [1]: 0.17 mg/dL
GLUCOSE [1]: 170 mg/dL
LACTATE DEHYDROGENASE [1]: 89.33 u/L
LIPASE [1]: 10.33 u/L
PHOSPHORUS [1]: 10.88 mg/dL
POTASSIUM [1]: 6.13 MEQ/L
SODIUM [1]: 140.53 MEQ/L
TOTAL BILIRUBIN [1]: 0.2 mg/dL
TOTAL PROTEIN [1]: 5.67 G/DL
URIC ACID [1]: 1.6 mg/dL
ABSOLUTE BASOPHIL [2]: 0 CELLS/uL
ABSOLUTE EOSINOPHIL [2]: 0 CELLS/uL
ABSOLUTE LYMPHOCYTE [2]: 9526.67 CELLS/uL
ABSOLUTE MONOCYTE [2]: 134.17 CELLS/uL
ABSOLUTE SEGMENTED NEUTROPHIL [2]: 922.5 CELLS/uL
BASOPHIL [2]: 0%
EOSINOPHIL [2]: 0%
ERYTHROCYTE COUNT [2]: 5.58 x10E6/uL
HEMATOCRIT [2]: 34.78%
HEMOGLOBIN [2]: 13.5 G/DL
LEUKOCYTE COUNT [2]: 10.58 x10E3/uL
LYMPHOCYTE [2]: 90.17%
MEAN CORPUSCULAR HEMOGLOBIN [2]: 24.27 pg
MEAN CORPUSCULAR HEMOGLOBIN CONCENTRATION [2]: 38.82 G/DL
MEAN CORPUSCULAR VOLUME [2]: 62.48 fL
MONOCYTE [2]: 1.17%
NEUTROPHIL [2]: 8.67%
NUCLEATED RED BLOOD CELLS [2]: 0.17 /100WBC
PLATELET COUNT [2]: 807.17 x10E3/uL
ALANINE AMINOTRANSFERASE [2]: 66.83 u/L
ALBUMIN [2]: 3.73 G/DL
ALKALINE PHOSPHATASE [2]: 286.17 u/L
ASPARTATE AMINOTRANSFERASE [2]: 142.33 u/L
BLOOD UREA NITROGEN [2]: 14.67 mg/dL
CARBON DIOXIDE [2]: 25.5 mmol/L
CHLORIDE [2]: 89.17 MEQ/L
CHOLESTEROL [2]: 75.17 mg/dL
CREATINE PHOSPHOKINASE [2]: 310.67 u/L
CREATININE [2]: 0.2 mg/dL
GLUCOSE [2]: 153 mg/dL
LACTATE DEHYDROGENASE [2]: 1594 u/L
LIPASE [2]: 14.83 u/L
PHOSPHORUS [2]: 11.28 mg/dL
POTASSIUM [2]: 8.46 MEQ/L
SODIUM [2]: 126.88 MEQ/L
TOTAL BILIRUBIN [2]: 0.37 mg/dL
TOTAL PROTEIN [2]: 5.53 G/DL
URIC ACID [2]: 1.52 mg/dL
ABSOLUTE BASOPHIL [3]: 0 CELLS/uL
ABSOLUTE EOSINOPHIL [3]: 0 CELLS/uL
ABSOLUTE LYMPHOCYTE [3]: 14451.67 CELLS/uL
ABSOLUTE MONOCYTE [3]: 45 CELLS/uL
ABSOLUTE SEGMENTED NEUTROPHIL [3]: 1203.33 CELLS/uL
BASOPHIL [3]: 0%
EOSINOPHIL [3]: 0%
ERYTHROCYTE COUNT [3]: 5.64 x10E6/uL
HEMATOCRIT [3]: 35.07%
HEMOGLOBIN [3]: 13.97 G/DL
LEUKOCYTE COUNT [3]: 15.7 x10E3/uL
LYMPHOCYTE [3]: 92%
MEAN CORPUSCULAR HEMOGLOBIN [3]: 24.77 pg
MEAN CORPUSCULAR HEMOGLOBIN CONCENTRATION [3]: 39.83 G/DL
MEAN CORPUSCULAR VOLUME [3]: 62.2 fL
MONOCYTE [3]: 0.33%
NEUTROPHIL [3]: 7.67%
NUCLEATED RED BLOOD CELLS [3]: 0.33 /100WBC
PLATELET COUNT [3]: 1161 x10E3/uL
ALANINE AMINOTRANSFERASE [3]: 67.67 u/L
ALBUMIN [3]: 4 G/DL
ALKALINE PHOSPHATASE [3]: 395.67 u/L
ASPARTATE AMINOTRANSFERASE [3]: 96.33 u/L
BLOOD UREA NITROGEN [3]: 9.67 mg/dL
CARBON DIOXIDE [3]: 25 mmol/L
CHLORIDE [3]: 102.33 MEQ/L
CHOLESTEROL [3]: 76.33 mg/dL
CREATINE PHOSPHOKINASE [3]: 757 u/L
CREATININE [3]: 0.16 mg/dL
GLUCOSE [3]: 172.67 mg/dL
LACTATE DEHYDROGENASE [3]: 255.33 u/L
LIPASE [3]: 10.33 u/L
PHOSPHORUS [3]: 11.53 mg/dL
POTASSIUM [3]: 6.56 MEQ/L
SODIUM [3]: 142.23 MEQ/L
TOTAL BILIRUBIN [3]: 0.13 mg/dL
TOTAL PROTEIN [3]: 5.83 G/DL
URIC ACID [3]: 1.93 mg/dL
